Test system: BALB/c 3T3 (CCL-163) cells
Details: not given
Method: The assay used to assess phototoxicity is the so-called 3T3 Phototoxicity Assay. The assay compares the cytotoxicity of a series of doses of a test compound in the presence and absence of UVA/visible light.
Briefly, serial dilutions of a test compound are prepared, and are incubated with 3T3 cells in two 96-well plates. Following an initial incubation, the cells in one plate, the test cells receiving both the chemical and light, are exposed to UVA/visible light. In the second plate, the test cells receiving only the test chemical were treated the same way, except they are kept in the dark for the same amount of time.
Twenty-four hours after exposure, the test cells and the control cells are then incubated with neutral red dye. Neutral red dye is used to measure the relative number of living cells in each well. Live cells are stained with the dye while dead cells are not.
Phototoxicity is measured by the relative toxicity between the doses with and without light exposure following published guidelines.
Streptomycin sulfate ([…]) and penicillin (100 IU/ml) were added to the medium after the cells were treated with test article in 96-well plates.
Serial dilutions of the tetracycline derivatives were prepared in DMSO at concentrations 100× to final testing concentration. The COL dilutions in DMSO were then diluted in Hanks' Balanced Salt Solution (HBSS) for application to the cells. The final DMSO concentration was 1% in treated and control cultures. A dose range finding assay is conducted with eight serial dilutions covering a range of 100-0.03 μg/ml in half log steps. Definitive assays are conducted with 6-8 serial dilutions prepared in quarter log steps, centered on the expected 50% toxicity point as determined in the dose range finding assay. One hundred 100 μg/ml was the highest dose recommended to prevent false negative results from UV absorption by the dosing solutions. One dose range finding and at least two definitive trials were performed on each tetracycline derivative and control compound.
Controls: Each assay included both negative (solvent) and positive controls. Twelve wells of negative control cultures were used on each 96-well plate. Chlorpromazine (Sigma Chemicals) was used as the positive control and was prepared and dosed like the test tetracycline derivatives.
Solar Simulator: A Dermalight SOL 3 solar simulator, equipped with a UVA H1 filter (320-400 nm), was adjusted to the appropriate height. Measurement of energy through the lid of a 96-well microtiter plate was carried out using a calibrated UV radiometer UVA sensor. Simulator height was adjusted to deliver 1.7±0.1 mW/cm^2 of UVA energy (resulting dose was 1 J/cm^2 per 10 minutes of exposure).
Phototoxicity Assay: Duplicate plates were prepared for each test material by seeding 10^4 3T3 cells per well in complete medium 24 hours before treatment. Prior to treatment, the medium was removed, and the cells washed once with 125 μl of prewarmed HBSS. Fifty μl of prewarmed HBSS were added to each well. Fifty μl of each test article dilution were added to the appropriate wells and the plates returned to the incubator for approximately one hour. Six wells were treated with each dose of test or control article on each plate. Following the 1 hr incubation, the plates designated for the photo irradiation were exposed (with the lid on) to 1.7±0.1 mW/cm^2 UVA light for 50±2 minutes at room temperature resulting in an irradiation dose of 5 J/cm^2. Duplicate plates, designated for the measurement of cytotoxicity without light, were kept in the dark room temperature for 50±2 minutes. After the 50 minute exposure period (with or without light) the test article dilutions were decanted from the plates and the cells washed once with 125 μl of HBSS. One hundred μl of medium were added to all wells and the cells incubated as above for 24±1 hours.

| Compound | PIF 2 (photoirritancy factor, IC50(-UVA)/IC50(+UVA), OECD draft guideline 432) | PIF 1 (photoirritancy factor, IC50(-UVA)/IC50(+UVA), earlier software) |
| --- | --- | --- |
| NC(=O)C1=C(O)CC2CC3Cc4ccc([N+](=O)[O-])c(O)c4C(=O)C3=C(O)C2(O)C1=O (stereo not shown) [COL 303, 9-nitro-6-demethyl-6-deoxy-4-dedimethylaminotetracycline] | 13.82 | – |
| O=C(NCN1CCOCC1)C1=C(O)CC2CC3Cc4cccc(O)c4C(=O)C3=C(O)C2(O)C1=O (stereo not shown) [COL 314, 2-CONHCH2-morpholin-1-yl-6-demethyl-6-deoxy-4-dedimethylaminotetracycline] | 89.48 | – |
| NC(=O)C1=C(O)C[C@@H]2C[C@@H]3Cc4cccc(O)c4C(=O)C3=C(O)[C@]2(O)C1=O [COL 3, 6-demethyl-6-deoxy-4-dedimethylaminotetracycline] | 84.72 | – |
| O=C(NCN1CCCC1)C1=C(O)CC2CC3Cc4cccc(O)c4C(=O)C3=C(O)C2(O)C1=O (stereo not shown) [COL 312, 2-CONHCH2-pyrrolidin-1-yl-6-demethyl-6-deoxy-4-dedimethylaminotetracycline] | 75.11 | – |
| O=C(NCN1CCCCC1)C1=C(O)CC2CC3Cc4cccc(O)c4C(=O)C3=C(O)C2(O)C1=O (stereo not shown) [COL 313, 2-CONHCH2-piperidin-1-yl-6-demethyl-6-deoxy-4-dedimethylaminotetracycline] | 58.22 | – |
| CN(C)c1ccc(O)c2c1CC1CC3CC(O)=C(C(N)=O)C(=O)C3(O)C(O)=C1C2=O (stereo not shown) [COL 10, 4-dedimethylaminominocycline] | 2.04 | – |
| CN(C)CC(=O)Nc1ccc2c(c1O)C(=O)C1=C(O)C3(O)C(=O)C(C(N)=O)=C(O)CC3CC1C2 (stereo not shown) [COL 309, 9-dimethylaminoacetamido-6-demethyl-6-deoxy-4-dedimethylaminotetracycline] | 12.87 | – |
| NC(=O)C1=C(O)CC2CC3Cc4c([N+](=O)[O-])ccc(O)c4C(=O)C3=C(O)C2(O)C1=O (stereo not shown) [COL 302, 7-nitro-6-demethyl-6-deoxy-4-dedimethylaminotetracycline] | 23.32 | – |
| CN(C)c1ccc2c(c1O)C(=O)C1=C(O)C3(O)C(=O)C(C(N)=O)=C(O)CC3CC1C2 (stereo not shown) [COL 306, 9-dimethylamino-6-demethyl-6-deoxy-4-dedimethylaminotetracycline] | 1.56 | – |
| O=C(NCN1CCNCC1)C1=C(O)CC2CC3Cc4cccc(O)c4C(=O)C3=C(O)C2(O)C1=O (stereo not shown) [COL 315, 2-CONHCH2-piperazin-1-yl-6-demethyl-6-deoxy-4-dedimethylaminotetracycline] | 35.30 | – |
| CC1c2cccc(O)c2C(=O)C2=C(O)C3(O)C(=O)C(C(=O)NCN4CCCC4)=C(O)CC3C(O)C21 (stereo not shown) [COL 807, 2-CONHCH2-pyrrolidin-1-yl-4-dedimethylaminodoxycycline] | – | 40.4 |
| CN(C)c1cc([N+](=O)[O-])c(O)c2c1CC1CC3CC(O)=C(C(N)=O)C(=O)C3(O)C(O)=C1C2=O (stereo not shown) [COL 1002, 9-nitro-4-dedimethylaminominocycline] | 1.35 | – |
| CC1c2cccc(O)c2C(=O)C2=C(O)C3(O)C(=O)C(C(N)=O)=C(O)CC3C(O)C21 (stereo not shown) [COL 8, 4-dedimethylaminodoxycycline] | 82.61 | – |

Same assay, conditions: BALB/c 3T3 cells, cytotoxicity with vs without 5 J/cm^2 UVA, neutral red; OECD draft guideline 432 software

| Compound | MPE (mean photo effect) |
| --- | --- |
| COL 2 | 0.005 |

Same assay, conditions: mouse, 110 min

| Compound | PIF 2 (photoirritancy factor, IC50(-UVA)/IC50(+UVA), OECD draft guideline 432) |
| --- | --- |
| CN(C)CCCN1c2ccccc2Sc2ccc(Cl)cc21 [Chlorpromazine, reference compound] | 40.38 |
| C[C@H]1c2cccc(O)c2C(=O)C2=C(O)[C@]3(O)C(=O)C(C(N)=O)=C(O)[C@@H](N(C)C)[C@@H]3[C@@H](O)[C@@H]21 [Doxycycline, doxycycline, reference compound] | 26.71 |

Source: patent publication US6946453B2, “4-dedimethylaminotracycline derivatives” (CollaGenex Pharmaceuticals, Inc., priority 1998, dated 2005)
